Measurements taken from patent EP4659750A1, “PHARMACEUTICAL COMPOSITION CONTAINING ß-LACTAMASE INHIBITOR AND USE THEREOF” (Evopoint Biosciences Co., Ltd., priority 2023, dated 2024).
Converted amounts (≈) assume the structure as drawn. Where two headings read alike, the source gives them in different places.

How the values were obtained:
[1] = test system: Pseudomonas aeruginosa ACC00680; assay: Neutropenic mouse thigh infection model, Example 1 (imipenem and Compound 1); assay type: in vivo; conditions: doses at 1,3,5,7 h, thighs 9 h after inoculation
Method: (§1) In the following examples, the tests are conducted following the steps below. • (1) Immunization of mice: All mice are injected intraperitoneally with 150 mg/kg cyclophosphamide 4 days before inoculation and 100 mg/kg cyclophosphamide 1 day before inoculation to reduce their neutrophils by immunosuppression. […] The mice are inoculated approximately 24 hours after the second administration of the immunosuppressant. • (2) Bacterial culture: All bacterial strains used for inoculation are prepared from overnight broth cultures. In brief, each strain is allowed to grow in cation-adjusted MuellerHinton broth in a shaking incubator (300 RPM) at 37°C. The overnight cultures are washed twice with phosphate buffer solution (PBS) and adjusted to the optimal concentration in PBS.
(§2) For intravenous (IV) administration, the solution of Compound 1 is prepared using a Captisol vehicle, which is 25 mM acetate buffer (prepared with sodium acetate trihydrate) containing 10% w/v Captisol. The pH is adjusted to 5.0 with 2N acetic acid solution. A desired volume of buffer is added to the weighed sample, the desired concentration of Compound 1 is prepared in the buffer, which is then ultrasonically heated in a water bath until a clear solution was obtained. The administrated volume of Compound 1 is 5 mL/kg.
(§3) For subcutaneous (SC) administration, an imipenem solution or imipenem-cilastatin solution is prepared in sterile PBS by using imipenem monohydrate or imipenem monohydrate and cilastatin sodium. The desired concentration of imipenem is prepared by adding PBS to the solid powder, then sonicating the mixture in a water bath until a clear solution is obtained, and the administrated volume is 10 mL/kg.
(§4) The mice were divided into 15 groups, with 5 mice in each group. The test was carried out following the above steps, the concentration of the bacterial solution of Pseudomonas aeruginosa ACC00680 was 1.83×10^5 colony forming unit (CFU) per gram of thigh tissues, and the administration was conducted according to the scheme in the table below.
(§5) For Groups 2 to 15 above, animals were euthanized 9 hours after inoculation using an overdose of sodium pentobarbital, followed by confirmation of death by cervical dislocation. The thighs were dissected and weighed, then homogenized in an ice-cold sterile phosphate buffer using a Precellys microsphere homogenizer; and the homogenate was quantitatively cultured on drug-free agar (CLED or PSA) and incubated for 18-24 h at 37°C, followed by colony counting.
(§6) For the […] Group 1 (control group) above, animals were euthanized with an overdose of sodium pentobarbital 1 hour after inoculation. As described above, bilateral thighs were dissected and quantitatively cultured for use as final samples.

[2] = test system: Acinetobacter baumannii AR0274; assay: Neutropenic mouse thigh infection model, Example 3; assay type: in vivo; conditions: doses at 1,3,5,7 h, thighs 9 h after inoculation
Method: as §1, §2, §3
The mice were divided into 16 groups, with 5 mice in each group. The test was carried out following the above experimental steps, the inoculation amount of Acinetobacter baumannii AR0274 was 1.8×10^6 CFU per gram of thigh tissue, and the administration was conducted according to the scheme in the table below.
as §5, with “16” for “15”
as §6

[3] = test system: Klebsiella pneumoniae ARo113; assay: Neutropenic mouse thigh infection model, Example 4; assay type: in vivo; conditions: doses at 1,3,5,7 h, thighs 9 h after inoculation
Method: as §1, §2, §3
as §4, with “16” for “15”, “Klebsiella pneumoniae ARo113” for “Pseudomonas aeruginosa ACC00680”, “4.0x10^6 CFU” for “1.83×10^5 colony forming unit (CFU)”
as §5, with “16” for “15”, “12-16” for “18-24”, “30°C,” for “37°C,”
as §6

[4] = test system: Pseudomonas aeruginosa; assay: Mice neutropenic thigh infection model, human-simulated dosing regimen, Example 5; assay type: in vivo; conditions: monotherapy, human-simulated imipenem dosing regimen (500 mg, q6h, infused for 60 minutes); four strains; 24 h
[5] = test system: Acinetobacter baumannii; assay: as above; assay type: in vivo; conditions: monotherapy, human-simulated imipenem dosing regimen (500 mg, q6h, infused for 60 minutes); seven strains; 24 h
[6] = test system: Klebsiella pneumoniae; assay: as above; assay type: in vivo; conditions: monotherapy, human-simulated imipenem dosing regimen (500 mg, q6h, infused for 60 minutes); four strains
Method: A total of 15 bacterial strains (4 strains of Pseudomonas aeruginosa, 4 strains of Klebsiella pneumoniae and 7 strains of Acinetobacter baumannii, see the table below) were selected for dose study of Compound 1 in the mice neutropenic thigh infection model. In terms of administrated dose, imipenem was administered with a human-simulated dosing regimen (500 mg, q6h, infused for 60 minutes),and also combined with different doses of Compound 1.
At 0 h, the mean bacterial load in the thighs of mice was 5.92 ± 0.14 log10 CFU/thigh.

[7] = test system: Pseudomonas aeruginosa ACC00680; assay: Neutropenic mouse thigh infection model, Example 2 (imipenem, cilastatin and Compound 1); assay type: in vivo; conditions: Compound 1 96 mg/kg total IV; doses at 1,3,5,7 h; thighs 9 h after inoculation
Method: as §1, with “The overnight cultures are washed twice with phosphate buffer solution (PBS) and adjusted to the optimal concentration in PBS.” left out
as §5, with “16” for “15”
as §6

[8] = Solubility of Compound 1 (HPLC), selection of solubilizer type; assay type: physicochemical; conditions: for solubility at 24 h: read-out: Concentration
Method: The solubilization effect of sodium sulfobutylether-β-cyclodextrin (SBECD) and hydroxypropyl-β-cyclodextrin (HP-β-CD) on Compound 1 was investigated by taking the solubility in 50 mM pH 4.5 acetate buffer medium and water as a reference. […] Table Solubility of Compound 1 incubated for 24 h at 25°C
In the art, surfactants may also be used for solubilization. To further improve the solubility of Compound 1, a surfactant was added on the basis of SBECD to investigate the solubility. […] Table Solubility of Compound 1 incubated for 24 h at 25°C

[9] = test system: OXA β-lactamases; assay: In vitro inhibition of OXA β-lactamases; assay type: biochemical, Acinetobacter baumannii; conditions: in vitro (background statement)

For `C[C@@H](O)[C@H]1C(=O)N2C(C(=O)O)=C(SCCN=CN)C[C@H]12` [Imipenem, imipenem monohydrate], the “Change in Pre-Tx Log10 load” value ([1]; Imipenem 100 mg/kg total SC) was 0.73 log10 CFU/g, the “Group geometric mean (CFU/g)” value ([1]; Imipenem 100 mg/kg total SC) was 1.08×10^6 CFU/g and the “Log10 group geometric mean (CFU/g)” value ([1]; Imipenem 100 mg/kg total SC) was 6.03 log10 CFU/g. For the same compound, the “Change in Pre-Tx Log10 loading (CFU/g)” value ([2]; Imipenem 96 mg/kg total SC) was 1.85 log10 CFU/g, the “Group geometric mean (CFU/g)” value ([2]; Imipenem 96 mg/kg total SC) was 3.91×10^7 CFU/g and the “Log10 group geometric mean (CFU/g)” value ([2]; Imipenem 96 mg/kg total SC) was 7.59 log10 CFU/g. The “Change in Pre-Tx Log10 loading (CFU/g)” value ([3]; Imipenem 96 mg/kg total SC) was 0.93 log10 CFU/g, the “Group geometric mean (CFU/g)” value ([3]; Imipenem 96 mg/kg total SC) was 1.34×10^7 CFU/g and the “Log10 group geometric mean (CFU/g)” value ([3]; Imipenem 96 mg/kg total SC) was 7.13 log10 CFU/g. The “mean increase in bacterial load” value [4] was 2.64 ± 1.18 log10 CFU/thigh, the “mean increase in bacterial load” value [5] was 2.16 ± 0.74 log10 CFU/thigh and the “mean increase in bacterial load” value [6] was 2.83 ± 0.81 log10 CFU/thigh.
In the case of `N=C1NC[C@@H](c2nnc([C@@H]3CC4(CC4)[C@@H]4CN3C(=O)N4OS(=O)(=O)O)o2)N1` [Compound 1], the “Change in Pre-Tx Log10 load” value ([1]; Compound 1 50 mg/kg total IV) is reported as 0.36 log10 CFU/g, the “Log10 group geometric mean (CFU/g)” value ([1]; Compound 1 50 mg/kg total IV) is reported as 5.67 log10 CFU/g and the “Change in Pre-Tx Log10 load” value ([1]; Compound 1 75 mg/kg total IV) is reported as 0.98 log10 CFU/g. The “Log10 group geometric mean (CFU/g)” value ([1]; Compound 1 75 mg/kg total IV) was 6.29 log10 CFU/g, the “Change in Pre-Tx Log10 load” value ([1]; Compound 1 100 mg/kg total IV) was 1.35 log10 CFU/g and the “Log10 group geometric mean (CFU/g)” value ([1]; Compound 1 100 mg/kg total IV) was 6.65 log10 CFU/g. The “Change in Pre-Tx Log10 loading (CFU/g)” value [7] was 2.45 log10 CFU/g, the “Log10 group geometric mean (CFU/g)” value [7] was 7.51 log10 CFU/g and the “Change in Pre-Tx Log10 loading (CFU/g)” value ([2]; Compound 1 96 mg/kg total IV) was 1.53 log10 CFU/g. The “Log10 group geometric mean (CFU/g)” value ([2]; Compound 1 96 mg/kg total IV) was 7.28 log10 CFU/g, the “Change in Pre-Tx Log10 loading (CFU/g)” value ([3]; Compound 1 96 mg/kg total) was 1.11 log10 CFU/g and the “Log10 group geometric mean (CFU/g)” value ([3]; Compound 1 96 mg/kg total) was 7.31 log10 CFU/g. The solubility at 24 h ([8]; 50 mm acetate buffer, pH 4.5, aqueous buffer, solubility in 50 mM acetate buffer (pH 4.5) (control), 24 h at 25°C) was 3850 µg/mL (≈ 9.64 mM), the solubility at 24 h ([8]; aqueous hp-β-cd 10%, solubility in aqueous HP-β-CD 10%, 24 h at 25°C) was 5000 µg/mL (≈ 12.5 mM) and the solubility at 24 h ([8]; aqueous hp-β-cd 20%, solubility in aqueous HP-β-CD 20%, 24 h at 25°C) was 6400 µg/mL (≈ 16 mM). The solubility at 24 h ([8]; aqueous hp-β-cd 30%, solubility in aqueous HP-β-CD 30%, 24 h at 25°C) was 7720 µg/mL (≈ 19.3 mM), the solubility at 24 h ([8]; aqueous sbecd 10%, peg 400, organic solvent or mixture, solubility in aqueous SBECD 10% and PEG 400 5%, 24 h at 25°C) was 6210 µg/mL (≈ 15.5 mM) and the solubility at 24 h ([8]; aqueous sbecd 10%, peg 400, organic solvent or mixture, solubility in aqueous SBECD 10% and PEG 400 20%, 24 h at 25°C) was 6350 µg/mL (≈ 15.9 mM). The solubility at 24 h ([8]; aqueous sbecd 10%, peg 400, organic solvent or mixture, solubility in aqueous SBECD 10% and PEG 400 40%, 24 h at 25°C) was 6840 µg/mL (≈ 17.1 mM), the solubility at 24 h ([8]; aqueous sbecd 10%, pvp k12, solubility in aqueous SBECD 10% and PVP K12 0.5%, 24 h at 25°C) was 6440 µg/mL (≈ 16.1 mM) and the solubility at 24 h ([8]; aqueous sbecd 10%, pvp k12, solubility in aqueous SBECD 10% and PVP K12 1%, 24 h at 25°C) was 6420 µg/mL (≈ 16.1 mM). It also gave a solubility at 24 h ([8]; aqueous sbecd 10%, pvp k12, solubility in aqueous SBECD 10% and PVP K12 2.5%, 24 h at 25°C) of 6380 µg/mL (≈ 16 mM), a solubility at 24 h ([8]; aqueous sbecd 10%, solubility in aqueous SBECD 10%, 24 h at 25°C) of 5960 µg/mL (≈ 14.9 mM) and a solubility at 24 h ([8]; aqueous sbecd 20%, solubility in aqueous SBECD 20%, 24 h at 25°C) of 8460 µg/mL (≈ 21.2 mM). It also gave a solubility at 24 h ([8]; aqueous sbecd 30%, solubility in aqueous SBECD 30%, 24 h at 25°C) of 10500 µg/mL (≈ 26.3 mM), a solubility at 24 h ([8]; aqueous sbecd, poloxamer 188, solubility in aqueous SBECD 10% and Poloxamer 188 1%, 24 h at 25°C) of 6750 µg/mL (≈ 16.9 mM) and a solubility at 24 h ([8]; aqueous sbecd, pvp, poloxamer 188, solubility in aqueous SBECD 10%, PVP K12 0.5% and Poloxamer 188 1%, 24 h at 25°C) of 6950 µg/mL (≈ 17.4 mM). It also gave a solubility at 24 h ([8]; aqueous sbecd, pvp, solutol hs15, solubility in aqueous SBECD 10%, PVP K12 0.5% and Solutol HS15 1%, 24 h at 25°C) of 6870 µg/mL (≈ 17.2 mM), a solubility at 24 h ([8]; aqueous sbecd, pvp, tween 80, solubility in aqueous SBECD 10%, PVP K12 0.5% and Tween 80 1%, 24 h at 25°C) of 6990 µg/mL (≈ 17.5 mM) and a solubility at 24 h ([8]; aqueous sbecd, solutol hs15, solubility in aqueous SBECD 10% and Solutol HS15 1%, 24 h at 25°C) of 6680 µg/mL (≈ 16.7 mM). For the same compound, the solubility at 24 h ([8]; aqueous sbecd, tween 80, solubility in aqueous SBECD 10% and Tween 80 1%, 24 h at 25°C) was 6920 µg/mL (≈ 17.3 mM), the “Concentration” value ([8]; solubility in aqueous SBECD 10%, 24 h at 25°C) was 5960 µg/mL and the “Concentration” value ([8]; solubility in water (control), incubated 24 h at 25°C) was 600 µg/mL. For the same compound, the solubility at 24 h ([8]; water, solubility in water (control), incubated 24 h at 25°C) was 600 µg/mL (≈ 1.5 mM) and the “inhibition of OXA β-lactamases” value [9] was “effectively inhibit”.
